# Data reported in EP1140110B1, “CLATHRATES OF DEHYDROEPIANDROSTERONE AND CORRESPONDING PHARMACEUTICAL COMPOSITIONS” (Euphar Group S.R.L., priority 1998, dated 2000).
# Experiments:
# [1] = Kinetics and metabolism of exogenous DHEA (100 mg single oral dose, young and elderly male subjects); assay type: in vivo; details: 100 mg DHEA single oral dose
# Method: This first part of the experimentation was carried out with the purpose of verifying the kinetics and processes of sulfoconjugation and bioconversion of DHEA as such administered to male subjects. The said subjects were divided into two groups according to age: one group of 7 young subjects aged between 24 and 32, and one group of 10 elderly subjects, aged between 67 and 86. Each one of these subjects was administered 100 mg of DHEA in a single dose by oral route. At 0.5, 1, 2, 3, 4, 6, 9,12 and 24 hours from administration, the blood levels of DHEA, DHEA sulphate, total testosterone and 17-β-estradiol were determined. The evaluations were carried out using the parameter of the maximum delta (maximum peak reached, from which the basal values were subtracted) and the parameter of the area under the curve (triangulation system).
# [2] = general statement in prior art section; cited from earlier work
smiles,measurement,setting,value
"C[C@]12CC[C@H](O)CC1=CC[C@@H]1[C@@H]2CC[C@]2(C)C(=O)CC[C@@H]12 [DHEA, dehydroepiandrosterone]","DHEA blood level response to administration, elderly versus young subjects",[1],significantly greater in the elderly subjects
same,"DHEA sulphate blood level response to administration, elderly versus young subjects",[1],significantly greater in the elderly subjects
same,"molar ratio between DHEA sulphate and DHEA in the response-to-administration curves, young versus elderly",[1],did not show any significant differences
same,time of DHEA sulphate blood level peak from administration,[1]; both groups (young and elderly),approximately two
same,blood levels of 17-β-estradiol versus placebo,[1]; compared with the testosterone finding (evident only in elderly subjects),the same phenomenon occurred
same,difference in profile of the testosterone levels versus placebo,"[1]; elderly subjects, two-way ANOVA",statistically evident
same,profile of the testosterone levels versus placebo,[1]; young subjects,did not undergo any substantial differences
same,solubility in water,[2],practically insoluble in water
